Results published in article PMC2731040 (BMC Clinical Pharmacology, 2009).
“Also recorded” adds a separate entry of the source.

Tests used:
[1] = Plasma pharmacokinetics of cocaine and benzoylecgonine after IV cocaine-d5 infusion; conditions: for Cmax: cocaine-d5 IV 0.5 mg/kg over 10 min then 2 mg/kg over 4 h; for Cmax / (t1/2)z / AUC (0-∞) / AUC(0-t) / AUCext / Tmax / λz: mean ± SD
Experimental: In this open-label, unblinded study, a 0.5 mg/kg intravenous loading dose of cocaine-d5 HCl over 10 minutes was followed by a slow 4 hour constant rate cocaine-d5 infusion of 2.0 mg/kg(~175 mg for a 70 kg person). […] When this method of cocaine administration is utilized, a larger dose can be given over a longer period of time and approximates frequently reported patterns of cocaine use. This method also allowed for close monitoring and termination of the infusion if untoward psychiatric or cardiovascular effects occurred.
For both cocaine infusions (sessions 1 and 2), plasma samples for cocaine and metabolites (~6 ml) were obtained 5 minutes before and 10 minutes, 0.5, 1, 1.5, 2, 4, 4.25, 4.5, 5, 6, 8, 12, 21, 27, 33, and 45 hours after each cocaine infusion.
Plasma concentrations of cocaine and benzoylecgonine were measured in our laboratory using a method we developed. The method allows for simultaneous determination of cocaine, benzoylecgonine, and deuterium-labeled analogs [cocaine-d5 and benzoylecgonine-d5 (BE-d5)] by using combined gas chromatography-mass spectrometry (GC-MS). Differently labeled stable isotope analogs were used as internal standards. The calibration curves were from 5 to 2,000 ng/mL for cocaine-d5 and 10 to 2,000 ng/mL for BE-d5. Lower limits of quantitation (LLOQ) were 5 ng/ml (cocaine-d5) and 10 ng/ml (BE-d5) in plasma. Qualitative urine benzoylecgonine was measured by Northwest Toxicology Laboratory, Salt Lake City, Utah, using the Roche Diagnostics Online® immunoassay.
The plasma concentration-time profiles for cocaine and benzoylecgonine (BE) were analyzed by non-compartmental methods, utilizing the pharmacokinetic data analysis program WinNonlin Pro, version 3.0 [31].
The area under the plasma concentration-time curve was calculated using the linear trapezoidal rule up to the maximum plasma concentration, and thereafter using the logarithmic trapezoidal rule to the last measurable plasma concentration. The remaining area was extrapolated to infinity by dividing the last appropriate plasma concentration by the terminal exponential rate constant.
Maximum plasma concentration (Cmax) and time of maximum plasma concentration (Tmax) were determined by visual inspection of data. "Terminal" exponential half-life [(t1/2)z] was calculated from log-linear regression of "terminal" exponential phase data points. Cocaine clearance (CL) and terminal exponential volume of distribution (Vz) were calculated by conventional equations: CL = [Dose/Area under the curve (AUC)0-∞] and Vz = CL/λz, respectively, where λz ("terminal" exponential rate constant) = ln2/(t1/2)z. […] Amount of BE in urine samples was calculated by multiplying concentration by volume.

[2] = tested on: nondependent cocaine-experienced subjects; assay: Physiologic measures during cocaine challenge sessions; assay type: in vivo, human; conditions: session 2 vs session 1; peak effects and effects across time
Experimental: Heart rate, systolic and diastolic blood pressure were measured using a cardiovascular monitor (Dinamap by Critikon, Vital Signs Monitor 1846 SX). Rate pressure product was calculated as the product of systolic blood pressure and heart rate. Respiration rate was measured by counting the number of inhalations per minute. These vital signs were determined with the patient in a supine position for at least 10 minutes.
(§1) Heart rate, blood pressure, respiration rate, skin and core temperature were recorded at specific times during the study. During infusions, measures were obtained pre-dose and at 0.17, 0.5, 0.75, 1, 1.5, 2, 2.5, 3, 3.5, 4, 4.25, 4.5, 5, 6, 8, 12, 18, 24, 36, 48, and 72 hours after dosing. The electrocardiogram was monitored continuously during the infusion and for 4 hours after the termination of the intravenous cocaine infusion. EKG tracings were recorded at each data collection point.
(§2) The time courses of physiologic and subjective data were analyzed by repeated measures analysis of variance (ANOVA). Treatment conditions (Sessions 1 and 2) and observation times (hours post-dose) were considered within-subject factors. Change scores (post-dose minus pre-dose values) were used in most analyses. Raw score were used where indicated. After a significant F test, pairwise comparisons of treatment conditions were performed using the least squares means analysis. Peak effects within a session were determined for each subject and each variable and analyzed using a one-factor repeated measures ANOVA. Effects were considered statistically significant at p = 0.05. Data were adjusted for sphericity using the Huynh-Feldt adjustment factor. Huynh-Feldt-corrected significance values are reported.

[3] = tested on: nondependent cocaine-experienced subjects; assay: Adverse events and cardiovascular safety monitoring; assay type: in vivo, human; conditions: STS 6 mg/24 hours
Experimental: as §1

[4] = tested on: nondependent cocaine-experienced subjects; assay: Subjective measures (verbal ratings, visual analog scales, POMS) during cocaine challenge sessions; assay type: in vivo, human
Source text: Verbal ratings of global intoxication and craving (on a scale of 0 to 100) were obtained at the same time points as the physiologic measures, with 0 representing no drug effect and 100 representing the highest level of intoxication or craving.
Visual analog scales were used to rate the degree of drug liking by moving an arrow along a 10 cm line marked at opposite ends as 0 (not at all) and 100 (extreme) using a hand-held computer (Tandy 102). Items rated on the visual analog scale included "good drug effect" and "bad drug effect," and were obtained prior to cocaine infusion and at 0.17, 0.5, 0.75, 1, 1.5, 2, 2.5, 3, 3.5, 4, 4.25, 4.5, 5, 6, and 8 hours after dosing.
The Profile of Mood States (POMS) assessed mood changes in Anger, Confusion, Fatigue, Tension, and Vigor on a scale from 0 to 4, where 0 indicated "no effect" and 4 indicates "extremely strong". Ratings were obtained prior to cocaine infusion and at 1, 3, and 6 hours after dosing.
as §2

[5] = Selegiline and metabolites excreted in 24 hour urine collections; assay type: in vivo, human; design: unit not given here; conditions: Mean ± SD, N = 12
Experimental: (§3) When subjects were in the GCRC, all urine was collected and volumes recorded. Following each cocaine infusion, urine was collected in fractions from 0 to 24, 24 to 48, and 48 to 72 hours (timed from the start of the infusion). Samples were then frozen at -70°C until analyzed. […] A qualitative screen for drugs of abuse was obtained every other day for the entire study period.
(§4) All analyses employed a one-factor repeated-measures analysis of variance (ANOVA), with all parameters analyzed as their logarithmic (natural) transforms. If a day effect was found between days 9, 11, 12, and 13, a Tukey multiple comparison procedure was employed posthoc to compare the days in pairs. A test for linear trend was included. All probability estimates presented are based on the Type III sums of squares.

[6] = tested on: noradrenergic tone; assay: Urinary MHPG-S excretion (surrogate for noradrenergic tone, MAO-A metabolite); assay type: in vivo, human
Source text: The interactions between MAO-A inhibitors and cocaine administered are largely unexplored. […] Therefore, measurement of dopaminergic and noradrenergic tone may be important in predicting toxic events. We measured dopaminergic tone with the surrogate marker of plasma HVA, the major brain metabolite of dopamine, and serum levels of prolactin, a hormone whose secretion is inhibited by dopamine. The surrogate for noradrenergic tone was urine concentrations of MHPG-S. In order to assess the degree of MAO-A and MAO-B inhibition, we assayed concentrations of a substrate of MAO-B, phenylethylamine (PEA). PEA would be expected to increase with MAO-B inhibition, and concentrations of MHPG-S, which is a metabolite of norepinephrine produced by MAO-A primarily in the brain [20], would be expected to decrease.
as §3
Concentrations of MHPG-S in urine were determined using LC-MS/MS [29]. […] As urinary creatinine excretion is directly related to glomerular filtration and renal blood flow, and urinary creatinine excretion is relatively constant (~1 gm/day), it can be used to estimate concentrations of a substance during a 24 hour urine collection period. Using ratios of the concentrations of MHPG-S to creatinine obtained from assays of these spot urine samples, MGPG-S concentrations during the outpatient period (when subjects would be unlikely to provide accurate 24 hour urine collections) were compared to those from urine samples on inpatient days.

[7] = Trough plasma concentrations of selegiline and metabolites; assay type: in vivo, human; conditions: days 9, 11, 12, and 13 of STS; p for linear trend <0.001 (l-methamphetamine) and <0.01 (l-amphetamine)
Source text: as §4

[8] = 0–24 hours after cocaine (day 11), STS 6 mg/24 hours
[9] = 24–48 hours after cocaine (day 12), STS 6 mg/24 hours
[10] = 48–72 hours after cocaine (day 13), no patch applied at 9 AM on day 14
[11] = Pre Selegiline (session 1), plasma
[12] = With Selegiline (session 2), plasma

C#CCN(C)[C@H](C)Cc1ccccc1 [Selegiline, selegiline]
Effect of selegiline on cocaine or BE plasma pharmacokinetics ([1]; after removal of the two outliers, STS 6 mg/24 hours for one week): No effect
Effect of selegiline on cocaine-induced physiological effects [2]: Neither peak effects (Table 3) nor physiological effects across time were affected
Adverse events ([3]; cocaine-d5 IV 2.5 mg/kg over 4 hours, 2.5 mg/kg): One subject reported erectile dysfunction; also recorded: One subject experienced anxiety and one reported insomnia
Cardiovascular adverse effects (orthostatic vital signs and cardiovascular monitoring) ([3]; selegiline maintenance phase): no adverse cardiovascular effects
Verbal ratings of craving, second session vs first ([4]; between 1.5 and 4.5 hours after cocaine, condition × time significant): lower
POMS anger, tension and total score scales across time, second session vs first ([4]; second cocaine session (after selegiline)): significantly different (lower)
Excreted in the 24 Hour Urine [5, 8]: 0.109 ± 0.073
Excreted in the 24 Hour Urine [5, 9]: 0.145 ± 0.138
Excreted in the 24 Hour Urine [5, 10]: 0.063 ± 0.097
Total Amount of MHPG-S Excreted in the 24 Hour Urine Collection ([6]; Day 4–5, 0–24 hr Postselegiline): 1.43 ± 0.40 mg
Total Amount of MHPG-S Excreted in the 24 Hour Urine Collection ([6]; Day 11–12 Selegiline Phase 1st Day After Cocaine): 1.09 ± 0.23 mg
Total Amount of MHPG-S Excreted in the 24 Hour Urine Collection ([6]; Day 12–13 Selegiline Phase 2nd Day After Cocaine): 1.07 ± 0.40 mg
Total Amount of MHPG-S Excreted in the 24 Hour Urine Collection ([6]; Day 13–14 Selegiline Phase 3rd Day After Cocaine, no patch applied at 9 AM on Day 14): 1.01 ± 0.33 mg

CN[C@H](C)Cc1ccccc1 [l-Methamphetamine, l-methamphetamine]
Trough plasma concentrations over time [7]: increased over time
Excreted in the 24 Hour Urine [5, 8]: 6.26 ± 2.28
Excreted in the 24 Hour Urine [5, 9]: 8.51 ± 5.69
Excreted in the 24 Hour Urine [5, 10]: 4.83 ± 1.55

C#CCNC(C)Cc1ccccc1 (centres unmarked) [Desmethylselegiline, n-desmethylselegiline]
Excreted in the 24 Hour Urine [5, 8]: 0.184 ± 0.128
Excreted in the 24 Hour Urine [5, 9]: 0.188 ± 0.162
Excreted in the 24 Hour Urine [5, 10]: 0.082 ± 0.086

CN1[C@H]2CC[C@@H]1[C@@H](C(=O)O)[C@@H](OC(=O)c1ccccc1)C2 [Benzoyl-ecgonine, benzoylecgonine]
Cmax [1, 11]: 1045 ± 180 ng/mL
(t1/2)z [1, 11]: 8.63 ± 5.36 h
AUC (0-∞) [1, 11]: 13600 ± 3820 ng·h/mL
AUC(0-t) [1, 11]: 13000 ± 3030 ng·h/mL
AUCext [1, 11]: 3.45 ± 6.45%
Tmax [1, 11]: 4.79 ± 0.50 h
λz [1, 11]: 0.0928 ± 0.023 h⁻¹
(t1/2)z [1, 12]: 7.52 ± 1.82 h
AUC (0-∞) [1, 12]: 13200 ± 4180 ng·h/mL
AUC(0-t) [1, 12]: 12900 ± 3760 ng·h/mL
AUCext [1, 12]: 2.21 ± 2.24%
Tmax [1, 12]: 5.04 ± 0.65 h
λz [1, 12]: 0.0971 ± 0.024 h⁻¹
Cmax ([1]; With Selegiline (session 2, after one week STS 6 mg/24 hours), plasma): 957 ± 184 ng/mL
BE AUC relative to that of cocaine ([1]; plasma, after IV cocaine-d5 infusion): approximately 5.9 times
